Legend:
spirochetes = assay: Case study Patient A: penicillin G, then with Lycopene and Allicin, for neuro-spirochetosis; format: in vivo, human; conditions: 24 million units per day intravenously every 4 hours, after a few days
Protocol: A patient (below, “Patient A”) was hospitalized on 10 Jun. 2019 and reported the following symptoms: • Fatigue; • Rash similar to a syphilis rash Patient A experienced 6 months previous; • Blurred vision; and • Headache and impaired thinking.
Based on the above results Patient A was treated with aqueous crystalline penicillin G 24 million units per day, administered intravenously every 4 hours.
On 23 Feb. […] However, other spirochetes were present which could create systemic infection. Among these bacteria, Patient A had Brachyspira, a slow-growing anaerobic spirochete that can colonize the large intestine of animals including humans. While Brachyspira is known for causing diarrhea, it was recently discovered that it could also attack other organs. It was found in the Alzheimer's brain (Miklossy, 2011 [16]) and has been recently been associated with other human chronic conditions (Hampson, 2017 [17]). One human experimental infection was recently performed, where a volunteer drank cultures of Brachyspira isolated from an Australian Aboriginal child with diarrhea, and reported headaches, among other symptoms. (Hampson, 2017 [18]).
After a number of medical consultations, Patient A agreed to follow a non-standard protocol, extending penicillin treatment s to a 6+week course for neuro-spirochetosis. […]

gray hair = assay: Case study Patient A: hydroxychloroquine and curcumin added at end of therapy, gray hair; format: in vivo, human; conditions: hydroxychloroquine 200 mg per day for one month plus curcumin 3 g per day, added at end of therapy (FIG. 7)
From the text: Patient reported the following improvements—including the *very surprising* disappearance of minor symptoms they had not been aware of beforehand. A summary follows: • Eyes. Vision blur resolved almost completely. • Brain. Improved cognitive functions short-and-long-term memory (they reported faster typing). • Numbness. Some minor parts of their body that had been numb since the 2008 neuropathy, such as the tips of the toes, started to regain sensitivity. • Body. Even in a condition of little exercise while being hospitalized the patient lost about 5 kg in 2 weeks and seemed more toned and in generally better condition (FIG. 2). • Asthma. Patient A reported better breathing. […] Joints in hands started swelling, and then healing (see FIG. 5). Arthritis has been reported both with spirochetes and Chlamydia Pneumoniae infections (Steere, 1987 [19], Porritt, 2016 [20]). • Prostate. Patient A never had prostate problems. However, they reported a larger urine flow and more frequent nocturnal penile tumescence. • Skin. Lesions and sclerotic plaques on their hands, which dated back from 2008, started healing. They resembled a sub-clinical manifestation of Acrodermatitis Chronica Atrophicans, which appears in phase 3 of European borreliosis (see FIG. 3). Incidentally, the healing process highlighted a small-scale bull's eye patterns, with a white patch and a red dot at the center (FIG. 4). […]

SMILES | Effect of therapy (patient feeling better, vision improving) (spirochetes) | Reversal of gray hair (gray hair)
CC1(C)S[C@@H]2[C@H](NC(=O)Cc3ccccc3)C(=O)N2[C@H]1C(=O)O [aqueous crystalline penicillin G, penicillin G] | seemed effective | 
COc1cc(/C=C/C(=O)CC(=O)/C=C/c2ccc(O)c(OC)c2)ccc1O [curcumin] |  | partial reversal of gray hair
CCN(CCO)CCCC(C)Nc1ccnc2cc(Cl)ccc12 (stereo not drawn) [hydroxychloroquine] |  | partial reversal of gray hair

From patent US20240148717A1, “COMBINATION THERAPY FOR TREATMENT OF CONDITIONS ASSOCIATED WITH AGING” (priority 2021, published 2024)
